The source of these data is ChEMBL document CHEMBL6078636, “A Spatiotemporally Controlled and Mitochondria-Targeted Prodrug of Hydrogen Sulfide Enables Mild Mitochondrial Uncoupling for the Prevention of Lipid Deposition” (J Med Chem, 2024).

The source made the active and inactive calls. The calls are words filed in the database; no cut-off is given here.

Series [1] concerns AML12. In words: Inhibition of mitochondrial membrane potential in mouse AML12 cells under UV light-irradiation by JC-1 staining based analysis. The format is functional, cell-based.
Series [2] is described as follows: Prodrug conversion in mouse AML12 cells assessed as H2S metabolite release at 10 uM incubated for 4 hrs followed by UV light-irradiation for 1 min by WSP-5 probe based analysis. The format is ADME, cell-based. Particulars: aml12, 4.017 h, time 241 min.
The test system of series [3] is AML12. In words: Cytotoxicity against mouse AML12 cells pretreated for 24 hrs followed by UV light-irradiation for 1 min by MTT assay. The format is toxicity, cell-based. Particulars: aml12, 24.02 h, time 1441 min.
Series [4] can be described thus: Prodrug release in mouse AML12 cells assessed as H2S metabolite release at 10 uM incubated for 4 hrs followed by UV light-irradiation for 1 min by 2-OH-Cou probe based analysis. Type of series: ADME, cell-based. Particulars: aml12, 4.017 h, time 241 min.
For series [5], the system named is AML12. In words: Activation of mitochondrial AMPK signal pathway in palmitic acid-stimulated mouse AML12 cells assessed as increase in pACC level under light irradiation at 1 to 10 uM by Western blot analysis. Type of series: cell-based. Particulars: filed as activator, dose 1-10 µM.
Series [6] relates to AML12. In words: Activation of mitochondrial AMPK in mouse AML12 cells assessed as increase in pMFF level under light irradiation upto 10 uM by Western blot analysis. Type of series: cell-based. Particulars: filed as activator. (In general: In western blotting, separated proteins are transferred to a membrane and probed.)
Series [7] has as its system AML12. In words: Induction of H2O2 generation in mitochondria of mouse AML12 cells harboring SQR knockdown under photo-irradiation. Type of series: functional.
Series [8] deals with AML12. In words: Inhibition of excessive lipid deposition in mouse AML12 cells assessed as decrease in palmitic acid-induced free fatty acid at 1 to 10 uM by Oil Red O staining based analysis. The format is functional, cell-based. Particulars: dose 1-10 µM.
Series [9] can be described thus: Prodrug release in mouse AML12 cells assessed as H2S metabolite release at 1 to 10 uM incubated for 4 hrs followed by UV light-irradiation for 1 min by 2-OH-Cou probe based analysis. Particulars: aml12, 4.017 h, dose 1-10 µM, time 241 min. The format is ADME, cell-based.
Series [10] concerns AML12. Kind of series: Inhibition of mitochondrial membrane potential in mouse AML12 cells under UV light-irradiation measured after 24 hrs by TMRE staining based analysis. Type of series: functional, cell-based.
The subject of series [11] is AML12. Kind of series: Inhibition of excessive lipid deposition in mouse AML12 cells assessed as decrease in palmitic acid-induced total cholesterol at 1 to 10 uM by Oil Red O staining based analysis. Particulars: dose 1-10 µM. The format is functional, cell-based.
The subject of series [12] is AML12. Kind of series: Inhibition of mitochondrial membrane potential in mouse AML12 cells under UV light-irradiation measured for 30 mins by TMRE staining based analysis. Type of series: functional, cell-based.
A short description of series [13]: Prodrug conversion in mouse AML12 cells assessed as H2S metabolite release at 10 uM incubated for 4 hrs followed by UV light-irradiation for 1 min by […] based analysis. Type of series: ADME, cell-based. Particulars: aml12, 4 h.
In series [14] the test system is AML12. Kind of series: Induction of mitochondrial ROS via reverse electron transport driven by sulfide quinone oxidoreductase in mouse AML12 cells assessed as decrease in ratio of NAD+/NADH levels under photo-irradiation in presence of rotenone. Type of series: functional, cell-based.
In series [15] the test system is AML12. Kind of series: Activation of mitochondrial AMPK signal pathway in palmitic acid-stimulated mouse AML12 cells under light irradiation in presence of AMPK inhibitor by Western blot analysis. Type of series: cell-based.
Series [16] deals with AML12. Kind of series: Inhibition of excessive lipid deposition in mouse AML12 cells assessed as decrease in palmitic acid-induced total triglycerides at 1 to 10 uM by Oil Red O staining based analysis. The format is functional, cell-based. Particulars: dose 1-10 µM.
In series [17] the test system is AML12. In words: Induction of H2O2 generation in mitochondria of mouse AML12 cells under photo-irradiation. The format is functional.
Series [18] has as its system AML12. Kind of series: Activation of mitochondrial AMPK in mouse AML12 cells harboring SQR knockdown assessed as increase in pMFF level under light irradiation at 1 to 10 uM by Western blot analysis. The format is cell-based. Particulars: dose 1-10 µM.
A short description of series [19]: Prodrug conversion assessed as H2S metabolite release upto 100 uM under photo-irradiation by methylene blue dye based analysis. Type of series: ADME.
For series [20], the system named is AML12. In words: Induction of mitochondrial ROS via reverse electron transport driven by sulfide quinone oxidoreductase in mouse AML12 cells assessed as increase in ratio of CoQH2/CoQ levels under photo-irradiation. Type of series: functional, cell-based.
In series [21] the test system is AML12. In words: Activation of mitochondrial AMPK phosphorylation in mouse AML12 cells under light irradiation by Western blot analysis. Particulars: filed as activator, dose <= 10.0 µM. The format is cell-based.
Series [22] concerns AML12. In words: Induction of mitochondrial ROS via reverse electron transport driven by sulfide quinone oxidoreductase in mouse AML12 cells assessed as decrease in ratio of NAD+/NADH levels under photo-irradiation. Type of series: functional, cell-based.
Series [23] relates to AML12. Kind of series: Induction of mitochondrial uncoupling in oligomycin-treated mouse AML12 cells assessed as increase in OCR level at 10 uM incubated for 4 hrs followed by UV light-irradiation for 1 min under photo-irradiation. The format is functional, cell-based. Particulars: time 241.0 min.
The test system of series [24] is AML12. In words: Induction of mitochondrial uncoupling in oligomycin-treated mouse AML12 cells assessed as decrease in intracellular ATP level incubated for 4 hrs followed by UV light-irradiation for 1 min under photo-irradiation. Particulars: dose <= 10.0 µM, time 241.0 min. Type of series: functional, cell-based.
Series [25] can be described thus: Drug uptake in mouse AML12 cells at 10 uM incubated for 4 hrs followed by UV light-irradiation for 1 min by WSP-5 probe based analysis. Particulars: aml12, 4.017 h, time 241 min. The format is ADME, cell-based.
Series [26] can be described thus: Prodrug conversion in mouse AML12 cells assessed as H2S metabolite release at 1 to 10 uM incubated for 4 hrs followed by UV light-irradiation for 1 min by WSP-5 probe based analysis. Particulars: aml12, 4.017 h, dose 1-10 µM, time 241 min. Type of series: ADME, cell-based.
Series [27] relates to AML12. In words: Inhibition of excessive lipid deposition in mouse AML12 cells assessed as decrease in palmitic acid-induced lipid content by Oil Red O staining based analysis. Type of series: functional, cell-based. Particulars: dose 1-10 µM.
In series [28] the test system is AML12. Kind of series: Activation of mitochondrial AMPK in mouse AML12 cells assessed as increase in pACC level under light irradiation by Western blot analysis. Type of series: cell-based. Particulars: filed as activator, dose <= 10.0 µM.
Series [29] deals with AML12. Kind of series: Activation of mitochondrial AMPK in mouse AML12 cells assessed as increase in pMFF level under light irradiation at 1 to 10 uM in presence of rotenone by Western blot analysis. Type of series: cell-based. Particulars: dose 1-10 µM.
Series [30] relates to AML12. In words: Induction of mitochondrial ROS in mouse AML12 cells harboring SQR knockdown under photo-irradiation. Type of series: functional, cell-based.
For series [31], the system named is AML12. In words: Induction of mitochondrial ROS via reverse electron transport driven by sulfide quinone oxidoreductase in mouse AML12 cells under photo-irradiation by MitoSOX staining based analysis. The format is functional, cell-based.

`O=C(CCCCCCCCC[P+](c1ccccc1)(c1ccccc1)c1ccccc1)Oc1ccc(-c2cc(=S)ss2)cc1.[Br-]`: the inhibition result in series [1] is “inactive”. For the same molecule, the Drug metabolism entry in series [2] was “metabolite_detected”.
Regarding `Cc1cc(C)c(C(C)(C)CC(=O)S)c(OC(=O)OCc2cc3ccc(OCc4ccccc4[N+](=O)[O-])cc3oc2=O)c1`, the inhibition result in series [1] is “inactive”. Further, the Activity result in series [3] is “Non-toxic”. The Drug metabolism entry in series [4] is “metabolite_notdetected”.
Turning to `Oc1ccc(-c2cc(=S)ss2)cc1`, the inhibition entry in series [1] is “inactive”.
As to `Cc1cc(C)c(C(C)(C)CC(=O)S)c(OC(=O)OCc2cc3ccc(OCc4cc(OCCCC[P+](c5ccccc5)(c5ccccc5)c5ccccc5)ccc4[N+](=O)[O-])cc3oc2=O)c1`, the Activity entry in [5] is “Active; Exhibited More Potency Than Ap39 And Adt-Oh”; in series [3], “Non-toxic”; in [19], “Active”; in [21], “Dose-dependent-effect; Exhibited More Potency Than Ap39 And Adt-Oh”; in series [24], “Dose-dependent-effect; Activity Superior To M2, Ap39, Adt-Oh”; in series [28] it was “Dose-dependent-effect; Exhibited More Potency Than Ap39 And Adt-Oh”. The outcome in series [6], in series [7], in series [17], in [20], in [22] and in series [23] was Active. Besides, the result in series [30] and in series [31] was Active. Also, the inhibition entry in series [8], in series [11], in [12] and in series [16] was “Active” in each case. Moreover, the Drug metabolism result in series [9], in series [13], in series [4] and in [26] was “metabolite_detected” throughout. The inhibition result in series [10] and in [1] was “inactive” throughout. Besides, the result in series [14], in series [15], in series [18] and in series [29] was inactive. Moreover, the Drug uptake in series [25] is given as 100%. Moreover, the inhibition entry in series [27] was “Dose-dependent-effect; Exhibited As More Effective Than Ap39 And Adt-Oh”.
